Results: patent EP4722213A1, “NITROGEN-CONTAINING FUNCTIONAL GROUP-SUBSTITUTED PYRIDAZINOPYRIDONE DERIVATIVE AND USE THEREOF” (Sichuan Huiyu Pharmaceutical Co., Ltd., priority 2023, dated 2024)
Where a name gives a salt, the structure may show the parent alone.

Tests used:
SOS1 = target: T1, SOS1 (Homo sapiens, UniProt Q07889); experiment: biochemical
T1 sequence (Q07889 1-1333): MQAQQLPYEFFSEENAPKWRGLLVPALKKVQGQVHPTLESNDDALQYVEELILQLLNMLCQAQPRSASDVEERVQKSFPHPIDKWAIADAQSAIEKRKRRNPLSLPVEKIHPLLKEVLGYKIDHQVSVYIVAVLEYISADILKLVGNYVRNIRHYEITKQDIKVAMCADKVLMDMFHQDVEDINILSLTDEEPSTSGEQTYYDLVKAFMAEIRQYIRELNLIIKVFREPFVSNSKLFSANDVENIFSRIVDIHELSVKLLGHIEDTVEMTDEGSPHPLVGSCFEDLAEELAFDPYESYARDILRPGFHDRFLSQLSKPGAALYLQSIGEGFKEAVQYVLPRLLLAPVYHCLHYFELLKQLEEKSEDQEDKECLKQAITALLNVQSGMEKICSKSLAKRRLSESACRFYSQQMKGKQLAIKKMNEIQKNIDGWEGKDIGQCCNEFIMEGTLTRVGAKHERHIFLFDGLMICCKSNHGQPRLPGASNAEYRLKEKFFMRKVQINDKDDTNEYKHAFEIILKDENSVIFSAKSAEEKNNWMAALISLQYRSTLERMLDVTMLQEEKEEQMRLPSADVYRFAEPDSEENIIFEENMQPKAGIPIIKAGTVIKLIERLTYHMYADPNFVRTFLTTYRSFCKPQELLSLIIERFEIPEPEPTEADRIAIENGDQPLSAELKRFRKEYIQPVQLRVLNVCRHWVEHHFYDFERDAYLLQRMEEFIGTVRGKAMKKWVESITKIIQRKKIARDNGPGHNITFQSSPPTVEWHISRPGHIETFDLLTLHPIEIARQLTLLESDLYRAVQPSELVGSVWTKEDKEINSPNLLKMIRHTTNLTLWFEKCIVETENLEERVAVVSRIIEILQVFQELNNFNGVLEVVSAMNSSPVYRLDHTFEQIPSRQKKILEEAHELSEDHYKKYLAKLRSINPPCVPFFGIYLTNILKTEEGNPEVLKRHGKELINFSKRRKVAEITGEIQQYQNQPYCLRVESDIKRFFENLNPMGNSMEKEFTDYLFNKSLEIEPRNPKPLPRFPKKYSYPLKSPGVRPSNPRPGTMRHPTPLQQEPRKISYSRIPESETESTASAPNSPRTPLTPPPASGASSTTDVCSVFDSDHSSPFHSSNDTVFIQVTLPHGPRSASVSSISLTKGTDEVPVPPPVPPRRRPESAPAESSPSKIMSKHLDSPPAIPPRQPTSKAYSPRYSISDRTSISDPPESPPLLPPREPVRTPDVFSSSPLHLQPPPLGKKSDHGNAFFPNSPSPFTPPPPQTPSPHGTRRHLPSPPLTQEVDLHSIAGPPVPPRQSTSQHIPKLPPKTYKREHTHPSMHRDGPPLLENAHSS

[1] = test system: NCI-H358 non-small cell lung cancer cells; experiment: Inhibition of NCI-H358 cell proliferation (CellTiter-Glo 3D, 7 days); format: cell-based; settings: Homo sapiens, NCI-H358, 168 h, 3D microspheres, read-out: Inhibitory activity against NCI-H358 cell proliferation (IC50)
Protocol: The number of viable cells were detected by CellTiter-Glo 3D® reagent, thereby evaluating the inhibitory effect of compounds on cell proliferation. NCI-H358 non-small cell lung cancer cells (Nanjing cobioer) in the exponential growth phase were digested with trypsin-EDTA, and seeded into 96-well ultra-low attachment microplates at 100 µL per well with a density of 2000 cells/well. The cells were cultured overnight at 37°C with 5% CO2 to form microspheres. The test compounds were serially diluted 5-fold with DMSO to obtain 8 concentration gradient dilutions, then diluted with RPMI-1640 (10% FBS) cell culture medium respectively to obtain compound working solutions (2×). 100 µL per well was added to the cell supernatant, and the culture was continued for 7 days under the conditions of 37°C and 5% CO2. The well plate was removed, and 100 µL of CellTiter-Glo 3D® reagent was added. After lysis at room temperature for 10-30 minutes, 70 µL of the lysate was aspirated and transferred to a white opaque 384-well plate.
The inhibition rate was calculated by the following formula: [formula] Note: The negative control refers to the group without inhibitor, and the blank refers to the group without cells.
The inhibitory activities of some Example compounds and comparative compounds against NCI-H358 cell proliferation are shown in Table 2. Table 2. Inhibitory activity of some Example compounds against NCI-H358 cell proliferation

[2] = Rat liver microsomal metabolic stability; format: in vitro ADME; settings: rat liver microsomes; for half-life at 1 µM: NADPH, 37°C; for CLint scaled at 1 µM: calculated from T1/2, fu defaulted to 1, read-out: CL(liver)
From the text: Metabolic stability affects the clearance rate, half-life, and oral bioavailability of compounds in the body, and is one of the most important ADME drug-like properties of compounds. Hepatocyte microsomal stability assay is a commonly used method for studying metabolic stability. In the present disclosure, rat liver microsomes are used to determine and investigate the metabolic stability of compounds.
Preparation of compound stock solution: an appropriate amount of the test compound and testosterone was taken, and a 1 mM stock solution was prepared with DMSO, which was stored in a refrigerator at 4°C.
Preparation of compound working solution: The 1 mM compound stock solution was taken respectively, and then diluted to 100 µM with acetonitrile-water (v:v = 1:1) to obtain the working solution.
Preparation of NADPH working solution: an appropriate amount of NADPH was weighed and dissolved in 16 mM MgCl2 to prepare a NADPH working solution with a concentration of 4.0 mM.
Preparation of rat liver microsome working solution: an appropriate amount of rat liver microsomes was taken and diluted with PBS to obtain a liver microsome working solution with a concentration of 1 mg/mL.
In the incubation system, 48 µL of PBS, 100 µL of rat liver microsome working solution, and 2 µL of the test compound working solution were sequentially added and mixed well. After pre-incubation at 37°C for 5 min, 50 µL of NADPH was added to initiate the reaction. After incubation for the corresponding time points, an appropriate amount of ice-cold acetonitrile containing an internal standard was added to terminate the reaction. The mixture was vortexed to mix well, centrifuged, and the supernatant was collected. The supernatant was injected into LC-MS/MS for detection of the residual metabolic amount of the compound.
Softwares of Excel, etc. were used for data processing according to the following formula. Ct = C0 •e^(−ke •t) [formula] when Ct = (1)/(2)C0 [formula] , T1/2 = (Ln2)/(ke) = (0.693)/(ke) [formula] CLint(mic) = (0.693)/(In vitro T1/2)•(1)/(mg/mL microsomal protein in reaction system) [formula] CLint(liver) = CLint(mic) •(mg microsomes)/(g liver)•(g liver)/(kg body weight) [formula] CL(liver) = (CLint(liver)×fu×Qh)/(CLint(liver)×fu+Qh) [formula] fu (unbound fraction in blood) was defaulted to be 1.

| Compound | IC50 (SOS1) | IC50 [1] | half-life at 1 µM [2] | CLint scaled at 1 µM [2] |
| --- | --- | --- | --- | --- |
| CCN1CCN(c2nnc(N[C@H](C)c3cccc(C(F)(F)F)c3F)c3cn(C4(C)CC4)c(=O)cc23)CC1 [Example 168, (R)-1-(4-ethylpiperazin-1-yl)-4-((1-(2-fluoro-3-(trifluoromethyl)phenyl)ethyl)amino)-6-(1-methylcyclopropyl) pyrido[3,4-d]pyridazin-7(6H)-one formate] | 4.1 nM | 35.5 nM |  |  |
| C[C@@H](Nc1nnc(N2CCN(CCO)CC2)c2cc(=O)n(C3(C)CC3)cc12)c1cccc(C(F)F)c1F [Example 194, (R)-4-((1-(3-(difluoromethyl)-2-fluorophenyl)ethyl)amino)-1-(4-(2-hydroxyethyl)piperazin-1-yl)-6-(1-methylcyclopropyl) pyrido[3,4-d]pyridazin-7(6H)-one] | 3.9 nM | 44.9 nM |  |  |
| C[C@@H](Nc1nnc(N2CCN(C)CC2)c2cc(=O)n(C3CC3)cc12)c1cccc(S(F)(F)(F)(F)F)c1 [Example 89, (R)-6-cyclopropyl-1-(4-methylpiperazin-1-yl)-4-((1-(3-(pentafluoro-λ^6-sulfaneyl)phenyl)ethyl)amino)pyrido[3,4-d]pyridazin-7(6H)-one] | 4.1 nM | 58.6 nM |  |  |
| C[C@@H](Nc1nnc(NC2(C)CC2)c2cc(=O)n(C3(C)CC3)cc12)c1cccc(C(F)F)c1F [Example 11, (R)-4-((1-(3-(difluoromethyl)-2-fluorophenyl)ethyl)amino)-6-(1-methylcyclopropyl)-1-((1-methylcyclopropyl)amino)pyrido[3,4-d]pyridazin-7(6H)-one] | 1.4 nM |  | 0.855 h | 25.8 mL/min/kg |
| C[C@@H](Nc1nnc(N2CCN(C)CC2)c2cc(=O)n(C3(C)CC3)cc12)c1cccc(C(F)(F)F)c1F [Example 164, (R)-4-((1-(2-fluoro-3-(trifluoromethyl)phenyl)ethyl)amino)-6-(1-methylcyclopropyl)-1-(4-methylpiperazin-1-yl)pyrido[3,4-d]pyridazin-7(6H)-one] | 4.2 nM | 32.8 nM |  |  |
| C[C@@H](Nc1nnc(NC2CC2)c2cc(=O)n(C3(C)CC3)cc12)c1cccc(C(F)F)c1F [Example 10, (R)-1-(cyclopropylamino) -4-((1-(3-(difluoromethyl)-2-fluorophenyl)ethyl)amino)-6-(1-methylcyclopropyl) pyrido[3,4-d]pyridazin-7(6H)-one] | 5.8 nM |  | 0.483 h | 33.6 mL/min/kg |
| C[C@@H](Nc1nnc(N2CCN3CCCC3C2)c2cc(=O)n(C3(C)CC3)cc12)c1cccc(C(F)F)c1F (stereo partly drawn) [Example 192, 4-(((R)-1-(3-(difluoromethyl)-2-fluorophenyl)ethyl)amino)-1-(hexahydropyrrolo[1,2-a]pyrazin-2(1H)-yl)-6-(1-methylcyclopropyl) pyrido[3,4-d]pyridazin-7(6H)-one] | 3.8 nM | 28.8 nM |  |  |
| Cc1nnc(N[C@H](C)c2cccc(C(F)(F)F)c2)c2cn(C3(C)CC3)c(=O)cc12 [comparative compound2, (R)-1-methyl-6-(1-methylcyclopropyl)-4-((1-(3-(trifluoromethyl)phenyl)ethyl)amino)pyrido[3,4-d]pyridazin-7(6H)-one hydrochloride, reference compound] |  | 377 nM |  |  |
| Cc1c([C@@H](C)Nc2nnc(N3CCC3)c3cc(=O)n(C4CC4)cc23)cccc1C(F)(F)F.O=CO [Example 50, (R)-1-(azetidin-1-yl)-6-cyclopropyl-4-((1-(2-methyl-3-(trifluoromethyl)phenyl)ethyl)amino)pyr ido[3,4-d]pyridazin-7(6H)-one formate] | 5.8 nM |  | 2.18 h | 14.2 mL/min/kg |
| C[C@@H](Nc1nnc(N2CCC2)c2cc(=O)n(C3CC3)cc12)c1cccc(C(F)F)c1F [Example 15, (R)-1-(azetidin-1-yl)-6-cyclopropyl-4-((1-(3-(difluoromethyl)-2-fluorophenyl)ethyl)amino)pyrido[3,4-d]pyridazin-7(6H)-one] | 5.5 nM |  | 0.787 h | 27 mL/min/kg |
| Cc1c([C@@H](C)Nc2nnc(C)c3cc(=O)n(C4(C)CC4)cc23)cccc1C(F)(F)F [comparative compound 1, (R)-1-methyl-4-((1-(2-methyl-3-(trifluoromethyl)phenyl)ethyl)amino)-6-(1-methylcyclopropyl) pyrido[3,4-d]pyridazin-7(6H)-one, reference compound] |  | 282 nM |  |  |
| CC(C)C1CCN(c2nnc(N[C@H](C)c3cccc(C(F)F)c3F)c3cn(C4(C)CC4)c(=O)cc23)CC1 [Example 121, (R)-4-((1-(3-(difluoromethyl)-2-fluorophenyl)ethyl)amino)-1-(4-isopropylpiperidin-1-yl)-6-(1-methylcyclopropyl) pyrido[3,4-d]pyridazin-7(6H)-one] | 5.5 nM |  | > 5 h | < 7.23 mL/min/kg |
| C[C@@H](Nc1nnc(N2CCNCC2)c2cc(=O)n(C3(C)CC3)cc12)c1cccc(C(F)F)c1F [Example 78, (R)-4-((1-(3-(difluoromethyl)-2-fluorophenyl)ethyl)amino)-6-(1-methylcyclopropyl)-1-(piperazin-1-yl)pyrido[3,4-d]pyridazin-7(6H)-one] | 4.6 nM |  | 4.22 h | 8.4 mL/min/kg |
| CNc1nnc(N[C@H](C)c2cccc(C#N)c2C)c2cn(C3CC3)c(=O)cc12 [Example 38, (R)-3-(1-((6-cyclopropyl-1-(methylamino)-7-oxo-6,7-dihydropyrido[3,4-d]pyridazin-4-yl)amino)ethyl)-2-methylbenzonitrile] | 5 nM |  | 3.55 h | 9.7 mL/min/kg |
